Measured values taken from patent US4551547A, “Biocidal 2-aryl-1, 3-cyclopentanedione enol ester compounds” (Union Carbide Corporation, priority 1983, dated 1985).

How the values were obtained:
Soybean = assay: Post-emergent herbicidal test, soybean; assay type: in vivo; set-up: key: 1: no perceptible injury; 2: intermediate degrees of injury; 3: intermediate degrees of injury; 4: intermediate degrees of injury; 5: the plant was dead; conditions: Table II; 2500 parts per million, after ten days
Procedure: (§1) Suspensions of the test compounds were prepared by dissolving one gram of compound in 50 milliliters of acetone in which had been dissolved 0.1 gram (10 percent of the weight of compound) of an alkylphenoxyethanol sufactant, as an emulsifying or dispersing agent. The resulting solution was mixed into 160 milliliters of water to give roughly 200 milliliters of a suspension containing the compound in finely divided form. The thus prepared stock suspension contained 0.5 percent by weight of compound. The test concentrations employed in the tests described below were obtained by diluting the stock suspension with water. The test procedures were as follows:
(§2) Experiments were also conducted to determine the phytotoxicity of representative compositions with respect to healthy fresh plants. Solutions of the compounds were prepared as described above to provide a concentration of 2500 parts per million of the test compound. The test plants were sprayed in accordance with the procedure described above for the Mite Foliage Spray Test so as to deliver approximately 100 milliliters of test solutions to the leaves of each plant tested. The sprayed plants and controls were set aside for approximately one hour to allow the solutions to dry and were then placed in the greenhouse. After ten days the plants were visually inspected to determine the extent of foliage injury. A rating of 1 indicates no perceptible injury; 5 indicates the plant was dead and ratings of 2, 3 and 4 indicate intermediate degrees of injury based upon the number and extent to which leaves were injured.

Perennial rye grass = assay: Preliminary herbicide seed germination test (pre-emergent), perennial rye grass; assay type: in vivo, Solium perenne; set-up: key: 5: no seedling emerged; 4: few seedlings emerged and/or very severe stunting; 3: moderate reduction in stand and/or moderate stunting.; 2: very slight reduction in stand and/or slight stunting; 1: no injury, seedlings appear no different with respect to stand or growth than untreated controls; conditions: Table II; ten to twelve days after application
Procedure: as §1
The following seeds were used in this test:
Perennial rye grass--Solium perenne
Two […] mixtures were prepared as follows:
Each of the above mixtures was rolled separately in 5 gallon containers for approximately one-half hour on ball mill to insure uniform mixing of seeds and soil. For each compound four 3-inch pots were filled with soil to within 11/2 inches of top of pots. To two of these pots were added 70 cc. of Mixture I. To the remaining 2 pots were added 70 cc. of Mixture II. The seed-soil mixture was tamped firmly, and the pots were removed to the greenhouse and watered lightly. About 2 hours after planting, 25 milliliters of the test formulation were added to one pot containing Mixture I and one pot containing Mixture II. An equal volume of a water solution containing acetone and an emulsifier in the same concentration as the herbicidal mixture but without the candidate herbicide was also added to each of the soil-seed mixtures. These pots are used as check or control units. The test compounds were formulated by diluting the stock suspension with water to obtain the desired concentration of the compound in parts per million of the final formulation. Each compound was tested at the same concentration. […] Ratings were made according to the following designations: […]

Cotton = assay: Post-emergent herbicidal test, cotton; assay type: in vivo; set-up: key: 1: no perceptible injury; 2: intermediate degrees of injury; 3: intermediate degrees of injury; 4: intermediate degrees of injury; 5: the plant was dead; conditions: Table II; 2500 parts per million, after ten days
Procedure: as §1, §2

[1] = test system: two-spotted mite (adults and nymphal stages); assay: Mite Foliage Spray Test (adults and nymphs); assay type: in vivo, Tetranychus urticae (Koch); set-up: key to Miticidal, Adult: A: Excellent Control; B: Partial Control; No Control; conditions: Table II; mortality count after four days
Procedure: Suspensions of the test compounds were prepared by dissolving one gram of compound in 50 milliliters of acetone in which had been dissolved 0.1 gram (10 percent of the weight of compound) of an alkylphenoxyethanol sufactant, as an emulsifying or dispersing agent. The resulting solution was mixed into 160 milliliters of water to give roughly 200 milliliters of a suspension containing the compound in finely divided form. The thus prepared stock suspension contained 0.5 percent by weight of compound. The test concentrations employed in the tests described below were obtained by diluting the stock suspension with water. The test procedures were as follows: Adults and nymphal stages of the two-spotted mite (Tetranychus urticae (Koch)), reared on Tender-green beam plants at 80±5° F. and 50±5 percent relative humidity, were the tests organisms. Infested leaves from a stock culture were placed of the primary leaves of two bean plants six to eight inches in height, growing in a two-and-a-half inch clay pot. 150-200 Mites, a sufficient number for testing, transferred from the excised leaves to the fresh plants in a period of twenty-four hours. Following the twenty-four hour transfer period, the excised leaves were removed from the infested plants. The test compounds were formulated by diluting the stock suspension with water to provide suspensions containing the desired amount of test compound per million parts of final formulation. The potted plants (one pot per compound) were placed on a revolving turntable and sprayed with 100-110 milliliters of tests compound formulation by use of a DeVilbis spray gun set at 40 psi, air pressure. This application, which lasted 30 seconds, was sufficient to wet the plants to run-off. As a control, 100-110 milliliters of a water solution containing acetone and emulsifier in the same concentrations as the test compound formulation, but containing no test compound, were also sprayed on infested plants. The sprayed plants were held at 80±5° F. and 50±5 percent relative humidity for four days, after which, a mortality count of motile forms was made on the leaves of the test plants. Any individual which was capable of locomotion upon prodding was considered living. In these tests the pesticidal activity of the compounds against mites and mite eggs was rated as follows: Tests were conducted in accordance with the procedures given at pages 17 to 21 supra. The results are expressed in the same manner as used in Table II, except with respect to miticidal activity. For mite adult and mite egg comparison purposes, results are given in parts per million (ppm) required for a 50 percent kill of mites or eggs, respectively.

Tomato = assay: Post-emergent herbicidal test, tomato; assay type: in vivo; set-up: key: 1: no perceptible injury; 2: intermediate degrees of injury; 3: intermediate degrees of injury; 4: intermediate degrees of injury; 5: the plant was dead; conditions: Table II; 2500 parts per million, after ten days
Procedure: as §1, §2

| Compound | Post-emergent Herbicidal, Soybean (Soybean) | Pre-emergent Herbicidal, Rye (Perennial rye grass) | Post-emergent Herbicidal, Cotton (Cotton) | Miticidal, Adult [1] | Post-emergent Herbicidal, Tomato (Tomato) |
| --- | --- | --- | --- | --- | --- |
| CCCCC(CC)C(=O)OC1=C(c2ccccc2Cl)C(=O)CC1 (stereo not drawn) [Compound 1] | 3 | 5 | 3 | A | 2 |
| O=C1CCC(OC(=O)c2ccccc2)=C1c1ccccc1Cl [Compound 2] | 2 | 4 | 2 | A | 2 |
| CC(=O)OC1=C(c2ccc(Cl)cc2Cl)C(=O)CC1 [Compound 3] | 2 | 2 | 2 | A | 2 |
| CC(C)C(=O)OC1=C(c2ccc(Cl)cc2Cl)C(=O)CC1 [Compound 4] | 2 | 1 | 2 | B | 2 |
| CCCCC(CC)C(=O)OC1=C(c2ccc(Cl)cc2Cl)C(=O)CC1 (stereo not drawn) [Compound 5] | 2 | 1 | 2 | A | 2 |
| CCCCCCCCCCCCCCCC(=O)OC1=C(c2ccc(Cl)cc2Cl)C(=O)CC1 [Compound 6] | 1 | 1 | 1 | A | 1 |
| CCCCC(CC)C(=O)OC1=C(c2ccccc2C)C(=O)CC1 (stereo not drawn) [Compound 7] | 2 | 5 | 2 | A | 2 |
| CCCCCCCCCCCCCCCC(=O)OC1=C(c2ccccc2C)C(=O)CC1 [Compound 8] | 3 | 2 | 2 | A | 1 |
| CCCCC(CC)C(=O)OC1=C(c2ccc(C)cc2C)C(=O)CC1 (stereo not drawn) [Compound 9, 3-(2-ethylhexanoyloxy)-2-(2', 4'-dimethylphenyl)-2-cyclopentenone] | 1 | 5 | 1 | A | 1 |
| Cc1ccc(C2=C(OC(=O)c3ccccc3)CCC2=O)c(C)c1 [Compound 10] | 1 | 3 | 1 | C | 1 |
| CC(=O)OC1=C(c2cc(C)ccc2C)C(=O)CC1 [Compound 11] | 2 | 4 | 2 | A | 3 |
| Cc1ccc(C)c(C2=C(OC(=O)C(C)C)CCC2=O)c1 [Compound 12] | 3 | 1 | 3 | B | 3 |
